Literature values in patent publication US6455574B1, “Therapeutic combination” (Pfizer Inc., priority 1997, dated 2002).

What was measured:
[1] = system: calcium channel; conditions: see International Patent Application Number PCT/EP94/02697
[2] = system: smooth muscle cell migration; conditions: see International Patent Application Number PCT/EP95/00847

| Structure (SMILES) | calcium channel blocking activity [1] | inhibition of smooth muscle cell migration [2] |
| --- | --- | --- |
| CCOC(=O)C1=C(COCCN)NC(C)=C(C(=O)OC)[C@H]1c1ccccc1Cl (single isomer, unassigned) [R(+) isomer] | little or no | potent inhibitor |
| CCOC(=O)C1=C(COCCN)NC(C)=C(C(=O)OC)[C@@H]1c1ccccc1Cl (single isomer, unassigned) [S(−) isomer] | substantially confined to the S(−) isomer | – |
